Earlier results in patent US20020132013A1, “Liquid cautery catheter” (priority 2001, published 2002).

Key:
[1] = test system: hemorrhagic radiation induced proctitis; settings: topical application
[2] = test system: uterocomual tubal junction

Compound	efficacy in control of bleeding [1]	complications reported ([2]; 35 healthy, parous women)	bilateral tubal occlusion, share of study participants ([2]; 35 healthy, parous women, hysterosalpingography 4 months after the procedure)	pregnancies reported in participants who demonstrated tubal occlusion ([2]; participants with tubal occlusion)
C=O [formalin]	demonstrated the efficacy	–	–	–
C=C(C#N)C(=O)OC [Methyl 2-cyanoacrylate]	–	No complications were reported	88.2%	no pregnancies reported
